In ChEMBL document CHEMBL1129670, “Synthesis and structure-activity relationships of N-propyl-N-(4-pyridinyl)-1H-indol-1-amine (besipirdine) and related analogs as potential therapeutic agents for Alzheimer's disease” (J Med Chem, 1996):

Legend:
[1] = target: Sodium-dependent noradrenaline transporter (Homo sapiens, UniProt P23975)
Description: Inhibitory activity against norepinephrine (NE) uptake in rat whole brain synaptosome preparation

[2] = target: Muscarinic acetylcholine receptor; type: cell membranes, Membrane
Description: Inhibition of [3H]quinuclidinyl benzilate (QNB) binding from rat forebrain membranes in the absence of Zn

Acetylcholinesterase = target: T1, Acetylcholinesterase (Rattus norvegicus, UniProt P37136)
T1 sequence (P37136 whole entry): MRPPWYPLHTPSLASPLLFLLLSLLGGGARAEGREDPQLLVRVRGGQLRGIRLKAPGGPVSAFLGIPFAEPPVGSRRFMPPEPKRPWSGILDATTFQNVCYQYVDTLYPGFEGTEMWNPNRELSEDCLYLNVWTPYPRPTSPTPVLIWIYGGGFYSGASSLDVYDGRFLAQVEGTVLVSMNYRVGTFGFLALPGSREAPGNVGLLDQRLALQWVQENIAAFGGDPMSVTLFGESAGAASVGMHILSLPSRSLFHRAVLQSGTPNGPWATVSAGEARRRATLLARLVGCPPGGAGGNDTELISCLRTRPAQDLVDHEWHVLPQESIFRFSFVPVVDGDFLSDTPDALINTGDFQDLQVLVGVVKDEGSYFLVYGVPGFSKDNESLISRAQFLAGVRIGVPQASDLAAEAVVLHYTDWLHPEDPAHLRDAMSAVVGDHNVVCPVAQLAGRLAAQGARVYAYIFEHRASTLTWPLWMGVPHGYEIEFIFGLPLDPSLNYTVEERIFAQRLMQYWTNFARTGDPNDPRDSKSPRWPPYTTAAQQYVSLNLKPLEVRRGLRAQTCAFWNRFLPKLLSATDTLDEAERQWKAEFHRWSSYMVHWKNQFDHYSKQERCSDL
Description: Inhibitory activity against acetylcholinesterase in rat striatal preparation

[3] = target: Muscarinic acetylcholine receptor; type: cell membranes, Membrane; remark: listed apart in the source
Description: Inhibition of [3H]quinuclidinyl benzilate (QNB) binding from rat forebrain membranes in the presence of Zn

Mus musculus [4] = organism: Mus musculus; test: animal or person
Description: Effective dose against administration in mice

[5] = target: T2, Adrenergic receptor alpha-1 (Rattus norvegicus, UniProt P15823+P23944+P43140); test: Inhibitory activity against [3H]WB-4101 binding to Alpha-1 adrenergic receptor in rat whole brain membrane; type: cell membranes
T2 sequence (P15823 whole entry): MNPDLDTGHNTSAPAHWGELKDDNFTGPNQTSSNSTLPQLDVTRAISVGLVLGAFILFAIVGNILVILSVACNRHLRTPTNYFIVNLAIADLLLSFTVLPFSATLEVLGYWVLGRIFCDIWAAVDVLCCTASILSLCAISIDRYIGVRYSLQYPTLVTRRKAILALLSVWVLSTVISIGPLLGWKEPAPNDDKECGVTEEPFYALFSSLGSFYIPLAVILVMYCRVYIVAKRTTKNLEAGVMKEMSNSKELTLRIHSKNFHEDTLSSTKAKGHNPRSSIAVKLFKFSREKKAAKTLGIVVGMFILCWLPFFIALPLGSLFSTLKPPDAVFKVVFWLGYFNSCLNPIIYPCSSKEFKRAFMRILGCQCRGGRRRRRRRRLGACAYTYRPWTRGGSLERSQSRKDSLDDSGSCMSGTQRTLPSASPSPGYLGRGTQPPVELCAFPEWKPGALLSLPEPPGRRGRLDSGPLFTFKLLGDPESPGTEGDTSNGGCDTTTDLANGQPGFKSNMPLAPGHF
T2 sequence (P23944 whole entry): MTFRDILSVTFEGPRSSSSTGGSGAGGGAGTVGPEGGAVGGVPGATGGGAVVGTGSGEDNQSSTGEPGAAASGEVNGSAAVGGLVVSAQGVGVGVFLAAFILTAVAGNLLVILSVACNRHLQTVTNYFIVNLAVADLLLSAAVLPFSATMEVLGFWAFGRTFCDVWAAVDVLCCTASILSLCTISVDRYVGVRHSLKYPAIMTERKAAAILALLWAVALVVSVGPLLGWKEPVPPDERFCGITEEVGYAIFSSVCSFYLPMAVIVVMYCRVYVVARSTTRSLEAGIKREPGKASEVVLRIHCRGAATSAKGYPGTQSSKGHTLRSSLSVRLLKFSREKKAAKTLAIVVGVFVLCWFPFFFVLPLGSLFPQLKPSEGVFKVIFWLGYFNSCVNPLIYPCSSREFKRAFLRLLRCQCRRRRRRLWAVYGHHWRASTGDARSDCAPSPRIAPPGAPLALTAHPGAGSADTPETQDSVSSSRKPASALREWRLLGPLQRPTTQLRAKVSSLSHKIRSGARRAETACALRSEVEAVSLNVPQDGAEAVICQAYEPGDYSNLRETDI
T2 sequence (P43140 whole entry): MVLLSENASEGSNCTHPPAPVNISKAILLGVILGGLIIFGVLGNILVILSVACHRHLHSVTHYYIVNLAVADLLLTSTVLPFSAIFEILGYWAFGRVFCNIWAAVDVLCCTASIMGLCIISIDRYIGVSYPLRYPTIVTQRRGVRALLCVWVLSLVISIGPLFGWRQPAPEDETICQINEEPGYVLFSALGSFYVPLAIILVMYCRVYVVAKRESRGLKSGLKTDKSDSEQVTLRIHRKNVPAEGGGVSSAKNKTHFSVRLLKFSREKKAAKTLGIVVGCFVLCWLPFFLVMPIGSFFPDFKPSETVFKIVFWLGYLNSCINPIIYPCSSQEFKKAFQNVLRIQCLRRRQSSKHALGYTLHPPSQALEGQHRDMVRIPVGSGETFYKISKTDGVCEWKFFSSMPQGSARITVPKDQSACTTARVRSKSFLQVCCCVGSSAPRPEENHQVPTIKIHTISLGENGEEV

Mus musculus [6] = organism: Mus musculus; test: Antagonistic activity against Scopolamine induced behavioral deficits in mice; 1/6; type: functional
[7] = target: T3, Adrenergic receptor alpha-2 (Rattus norvegicus, UniProt P22086+P19328+P22909); test: Inhibitory activity against [3H]clonidine binding to Alpha-2 adrenergic receptor in rat cortex
T3 sequence (P22086 whole entry): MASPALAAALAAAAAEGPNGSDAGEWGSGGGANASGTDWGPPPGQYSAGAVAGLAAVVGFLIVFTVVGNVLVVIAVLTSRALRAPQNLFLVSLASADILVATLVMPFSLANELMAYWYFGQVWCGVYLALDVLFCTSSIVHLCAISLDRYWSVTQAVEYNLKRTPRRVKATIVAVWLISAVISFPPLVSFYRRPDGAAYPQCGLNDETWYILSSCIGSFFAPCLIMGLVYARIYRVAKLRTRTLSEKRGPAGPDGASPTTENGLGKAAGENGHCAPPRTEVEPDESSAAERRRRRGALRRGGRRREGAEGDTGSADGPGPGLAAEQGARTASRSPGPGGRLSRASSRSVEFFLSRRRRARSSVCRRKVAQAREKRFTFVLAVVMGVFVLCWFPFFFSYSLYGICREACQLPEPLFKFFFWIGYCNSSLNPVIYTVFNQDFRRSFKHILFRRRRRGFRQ
T3 sequence (P19328 whole entry): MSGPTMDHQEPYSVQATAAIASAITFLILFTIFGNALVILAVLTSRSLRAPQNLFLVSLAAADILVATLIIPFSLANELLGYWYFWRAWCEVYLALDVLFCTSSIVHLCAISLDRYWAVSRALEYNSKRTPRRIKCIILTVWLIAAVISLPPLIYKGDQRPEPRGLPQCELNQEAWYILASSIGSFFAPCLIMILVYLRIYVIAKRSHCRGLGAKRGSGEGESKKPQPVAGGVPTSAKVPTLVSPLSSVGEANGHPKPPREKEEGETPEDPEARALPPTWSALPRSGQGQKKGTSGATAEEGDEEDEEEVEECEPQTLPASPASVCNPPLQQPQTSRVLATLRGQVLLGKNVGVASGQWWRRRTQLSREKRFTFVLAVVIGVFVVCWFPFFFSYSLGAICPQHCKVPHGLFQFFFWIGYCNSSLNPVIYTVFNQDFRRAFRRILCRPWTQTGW
T3 sequence (P22909 whole entry): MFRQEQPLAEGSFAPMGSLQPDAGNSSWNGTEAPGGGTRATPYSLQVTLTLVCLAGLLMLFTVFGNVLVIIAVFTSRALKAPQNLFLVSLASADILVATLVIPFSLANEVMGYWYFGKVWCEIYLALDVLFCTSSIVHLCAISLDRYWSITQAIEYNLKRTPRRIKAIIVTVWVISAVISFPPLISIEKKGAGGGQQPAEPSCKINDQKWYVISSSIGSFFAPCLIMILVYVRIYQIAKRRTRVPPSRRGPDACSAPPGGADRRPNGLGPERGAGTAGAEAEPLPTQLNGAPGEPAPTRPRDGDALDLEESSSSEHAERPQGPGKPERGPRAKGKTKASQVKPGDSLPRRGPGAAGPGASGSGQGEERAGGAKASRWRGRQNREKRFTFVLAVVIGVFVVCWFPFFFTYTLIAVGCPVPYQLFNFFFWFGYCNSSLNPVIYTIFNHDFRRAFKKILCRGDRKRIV

Mus musculus [8] = organism: Mus musculus; settings: dose 0.63 mg/kg; route subcutaneous
Description: Antagonistic activity against Scopolamine induced behavioral deficits in mice at dose 0.63 mg/kg sc

Mus musculus [9] = test: Antagonistic activity against Scopolamine induced behavioral deficits in mice at dose 0.02 mg/kg sc; type: functional; settings: route subcutaneous
Mus musculus [10] = organism: Mus musculus; settings: dose 2.5 mg/kg; route subcutaneous
Description: Antagonistic activity against Scopolamine induced behavioral deficits in mice at dose 2.5 mg/kg sc

Mus musculus [11] = organism: Mus musculus; settings: dose 5 mg/kg; route subcutaneous
Mus musculus [12] = organism: Mus musculus; test: Antagonistic activity against Scopolamine induced behavioral deficits in mice; 3/9; type: functional
Mus musculus [13] = organism: Mus musculus
Mus musculus [14] = test: Antagonistic activity against Scopolamine induced behavioral deficits in mice at dose 1.25 mg/kg sc; type: functional; settings: route subcutaneous
Mus musculus [15] = test: Antagonistic activity against Scopolamine induced behavioral deficits in mice at dose 5.0 mg/kg sc; type: functional; settings: route subcutaneous
Mus musculus [16] = test: Antagonistic activity against Scopolamine induced behavioral deficits in mice at dose […] sc; type: functional; settings: route subcutaneous

Sodium-dependent noradrenaline transporter, sequence (P23975 whole entry): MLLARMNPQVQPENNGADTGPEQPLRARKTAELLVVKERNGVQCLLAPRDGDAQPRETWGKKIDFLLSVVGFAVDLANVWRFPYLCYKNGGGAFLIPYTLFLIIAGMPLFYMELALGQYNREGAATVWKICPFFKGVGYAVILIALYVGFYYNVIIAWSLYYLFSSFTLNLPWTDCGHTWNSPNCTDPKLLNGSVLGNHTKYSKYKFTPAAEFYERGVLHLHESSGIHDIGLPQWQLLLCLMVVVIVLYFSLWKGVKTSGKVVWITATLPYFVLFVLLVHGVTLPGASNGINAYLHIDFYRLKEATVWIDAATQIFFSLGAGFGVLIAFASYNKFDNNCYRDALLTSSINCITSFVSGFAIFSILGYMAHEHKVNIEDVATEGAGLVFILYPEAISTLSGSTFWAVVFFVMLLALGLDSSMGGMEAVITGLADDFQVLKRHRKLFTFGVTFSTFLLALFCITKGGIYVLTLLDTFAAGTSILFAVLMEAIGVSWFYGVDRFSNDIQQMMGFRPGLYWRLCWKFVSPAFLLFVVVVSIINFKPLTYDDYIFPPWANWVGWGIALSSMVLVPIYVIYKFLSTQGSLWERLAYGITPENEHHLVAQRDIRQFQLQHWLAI

Row | SMILES | IC50 [1] | IC50 [2] | IC50 (Acetylcholinesterase) | IC50 [3] | ED50 (Mus musculus [4]) | further results
1 | Brc1ccc2c(ccn2Nc2ccncc2)c1 | > 20 µM | 44 µM | > 100 µM | 7.5 µM | > 20 mg/kg | –
2 | O=C(O)/C=C/C(=O)O.c1cnn(Nc2ccncc2)c1 | > 20 µM | > 1000 µM | > 100 µM | 247 µM | > 20 mg/kg | –
3 | CCN(c1ccncc1)n1ccc2ccccc21 | 0.25 µM | 10 µM | > 100 µM | 2.4 µM | 3.3 mg/kg | IC50 [5]: 3.3 µM; Antagonism (Mus musculus [6]): 1; IC50 [7]: 0.11 µM; Response (Mus musculus [8]): 33%
4 | CCCN(c1ccncc1)n1c(C)cc2ccccc21 | 1.1 µM | 7.2 µM | > 100 µM | 1.4 µM | 3.2 mg/kg | Response (Mus musculus [9]): 20%; IC50 [7]: 2.3 µM; Response (Mus musculus [10]): 20%; Response (Mus musculus [11]): 23%; Antagonism (Mus musculus [12]): 3
5 | O=C(O)/C=C/C(=O)O.c1ccc2c(c1)cnn2Nc1ccncc1 | 17 µM | 128 µM | > 100 µM | 29 µM | 3.8 mg/kg | Antagonism (Mus musculus [13]): 0
6 | CCCN(c1ccncc1)n1ccc2cc(Cl)ccc21 | 1.9 µM | 5.8 µM | > 100 µM | 2.4 µM | > 20 mg/kg | Antagonism (Mus musculus [6]): 1; Response (Mus musculus [14]): 20%
7 | CCCN(c1ccncc1)n1cc(C=O)c2ccccc21 | 2.2 µM | 3.3 µM | 20 µM | 1.8 µM | 18 mg/kg | Antagonism (Mus musculus [13]): 0
8 | CCCN(c1ccncc1)n1cccn1.O=C(O)/C=C/C(=O)O | > 20 µM | 127 µM | > 100 µM | 31 µM | > 20 mg/kg | –
9 | CCCN(c1ccncn1)n1ccc2ccccc21 | 1.4 µM | 391 µM | > 100 µM | 11 µM | > 20 mg/kg | Antagonism (Mus musculus [6]): 1; Response (Mus musculus [15]): 23%
10 | CCCN(c1ccncc1)n1cc2ccccc2n1 | 4.7 µM | 91 µM | > 100 µM | 15 µM | > 20 mg/kg | –
11 | O=C(O)/C=C/C(=O)O.c1ccc2c(c1)c1ccccc1n2Nc1ccncc1 | 1.4 µM | 20 µM | > 100 µM | 8.2 µM | 2.3 mg/kg | Antagonism (Mus musculus [13]): 0
12 | C=CCN(c1ccncc1)n1ccc2ccccc21 | 6.2 µM | 7.3 µM | > 100 µM | 1 µM | 4.2 mg/kg | Antagonism (Mus musculus [13]): 0
13 | c1ccc2nn(Nc3ccncc3)cc2c1 | > 20 µM | 409 µM | > 100 µM | 128 µM | > 20 mg/kg | –
14 | COc1ccc2c(ccn2Nc2ccncc2)c1 | > 20 µM | 44 µM | > 100 µM | 7.5 µM | > 20 mg/kg | –
15 | Cc1cn(Nc2ccncc2)c2ccccc12 | 12.8 µM | 82 µM | > 100 µM | 35 µM | 1 mg/kg | Antagonism (Mus musculus [6]): 1; Response (Mus musculus [16]): 33%
16 | O=[N+]([O-])c1ccc2c(ccn2Nc2ccncc2)c1 | 9.9 µM | 146 µM | > 100 µM | 12 µM | > 20 mg/kg | –
17 | Clc1cccc(Cl)c1NC1=NCCN1 [CLONIDINE] | > 20 µM | – | – | – | 0.36 mg/kg | Antagonism (Mus musculus [13]): 0
18 | O=C1CCCN1CC#CCN1CCCC1 [OXOTREMORINE] | – | 2.7 µM | – | 0.66 µM | – | –
19 | COC(=O)[C@@H]1[C@H]2C[C@H]3c4[nH]c5ccccc5c4CCN3C[C@@H]2CC[C@@H]1O [YOHIMBINE] | – | – | – | – | > 8 mg/kg | –
